How the values were obtained:
[1] = system: PIP3 production in A549 cells; experiment: TIRF microscopy of PIP3 reporter in A549 cells; assay type: cell-based, human
From the text: Class I PI3Ks convert the PtdIns(4,5)P2 lipid in the plasma membrane to PtdIns(3,4,5)P3 (or PIP3) which is converted to PtdIns(3,4)P2 by the action of 5-phosphatases. The inventors therefore tested whether stimulation of cells with 1938 led to the generation of PIP3 and PI(3,4)P2 using live imaging in cells expressing fluorescent biosensors that selectively bind these lipids. […] This PIP3 peak was followed by the generation of membrane-associated PI(3,4)P2 (FIG. 3aiii), with a timing in line with the known mechanism of cellular generation of PI(3,4)P2 from PIP3 by the action of 5-phosphatases. Similar kinetics of PIP3 and PI(3,4)P2 production have previously been reported in HeLa cells stimulated with insulin. […]
Image analyses of total reporter intensities were performed with the Fiji open source image analysis package. The region of interest (ROI) corresponding to the footprint of the individual cell across time points were defined using minimal intensity projection to select only pixels present across all time points, following prior subtraction of camera noise (rolling ball method, radius=500 pixels) and xy drift correction, intensity levels over time were measured. […] All other quantifications were performed using the open source software R/RStudio. […]

[2] = system: PIP3 levels in A549 cells; experiment: PIP3 measurement by mass spectrometry in A549 cells; assay type: cell-based, human; details: 2 min
Method: FIG. 21. a, MEFs were stimulated for the indicated time points with 1938 (5 μM) or for 2 min with PDGF (20 ng/ml) or insulin (100 nM), followed by lipid extraction and PIP3 measurement by mass spectrometry. b, MEFs were stimulated for 2 min with increasing doses of 1938 or PDGF, followed by lipid extraction and PIP3 measurement by mass spectrometry. c, A549 cells were stimulated for 2 min with increasing doses of 1938 or insulin, or 10 ng/ml PDGF, followed by lipid extraction and PIP3 measurement by mass spectrometry. […] These maximal 1938-induced PIP3 levels are below those required to give rise to sufficient PI(3,4)P2 to be detectable by mass spectrometry, a conclusion also supported by the observation that substantial levels of PIP3 induced by lower doses of PDGF (e.g. 0.5 ng/ml) were also not sufficient to give rise to levels of PI(3,4)P2 detectable by mass. […] A strong PIP3 response was also observed with insulin in these cells, with no PIP3 induced by PDGF, in line with the absence of this receptor in epithelial cells, including in A549.

CCN1CCN(c2ccc(Nc3cc(Nc4cccc5c4N(C(C)=O)CC5)ccn3)cc2)CC1 [Example 1938]
PIP3 signal in PIK3CA-null A549 cells ([1]; PIK3CA-null A549 cells): did not increase
time to plasma membrane-associated PIP3 production ([1]; serum-starved A549 cells): less than 3 min
concentration at which PIP3 response maxed out [2]: 10 µM

Reference: patent publication US20250263404A1, “AMINOPYRIDINES AS ACTIVATORS OF PI3 KINASE” (UCL Business Ltd, priority 2021, published 2025)
